Our source for the IC50 and inhibition values is patent publication US20230066011A1, “PYRROLOPYRIMIDINE DERIVATIVE, AND PHARMACEUTICAL COMPOSITION FOR PREVENTING OR TREATING PROTEIN KINASE-RELATED DISEASE COMPRISING SAME AS ACTIVE INGREDIENT” (VORONOI CO., LTD., priority 2019, published 2023).

Where only a bound is given, the exact number is not on record here.

For orientation: IC50 means the concentration that inhibits the measured activity by half.

Experiment [1] has as its target T1, human GST-DYRK1A (Homo sapiens, UniProt Q13627).
T1 construct: purified human GST-DYRK1A (full length, Thermo Scientifics) enzyme; purchased Thermo Scientifics
The experiment in a line: GST-DYRK1A enzyme inhibition, ADP-Glo kinase assay. To be noted: ATP 10 μM, GST-DYRK1A full length, read-out: DYRK1 IC50. In kind it is biochemical. Summed up:
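Full-length enzyme (10 ng) was incubated with 10 μM ATP and a specific substrate for 1 h at 25 °C in 40 mM Tris-HCl pH 7.4, 20 mM MgCl2, 0.5 mg/mL BSA, 50 μM DTT. Luminescence was read against a solvent control, and IC50 values were derived from 3 data sets.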
Background: ADP-Glo first removes unused ATP, then detects ADP through luciferase.

The target of experiment [2] is T2, human GST-CLK1 (Homo sapiens, UniProt P49759).
T2 construct: purified human GST-CLK1 (129-end, SignalChem) enzyme; purchased SignalChem
The experiment in a line: GST-CLK1 enzyme inhibition, ADP-Glo kinase assay. The class given is biochemical. The conditions noted are these: ATP 10 μM, GST-CLK1 129-end. In short, it runs like this: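 ADP-Glo luminescence read-out, relative to untreated solvent control, gave IC50 (nM) from triplicate data sets. Reactions ran an hour at 25° C with 3 ng GST-CLK1 (residues 129-end), 10 μM ATP and specific substrate in Tris-HCl pH 7.4 buffer with MgCl2, BSA and DTT.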

For experiment [3], the target named is LRRK2 (G2019S) (Homo sapiens, UniProt Q5S007, G2019S). The experiment in a line: LRRK2 G2019S enzyme inhibition, ADP-Glo kinase assay. To be noted: ATP 25 μM. On the set-up: purchased SignalChem L10-12GG. In kind it is biochemical. In short, it runs like this: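 IC50 derived from luminescent ADP-Glo readout against untreated solvent control, twelve final compound concentrations from 50 μM downward. Reaction: recombinant human LRRK2 G2019S enzyme, 25 μM ATP, substrate, pH 7.4 Tris buffer with MgCl2/BSA/DTT, 25° C. for 2 hours.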

For experiment [4], the system named is IL-6. The experiment in a line: Inhibition of LPS-induced IL-6 secretion of THP-1 monocytes (ELISA). The class given is cell-based, human. The conditions noted are these: Homo sapiens, THP-1; compound 0.5 μM, LPS 500 ng/mL, 24 hours; read-out: THP1/IL6 (% inhib). Summed up: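 THP-1 monocytes grown 16 h at 37 °C, pretreated 1 h with compound at final 0.5 μM, then stimulated with LPS at final 500 ng/mL for 24 h. IL-6 and TNF-α in culture supernatant measured by ELISA (OD 450 nm).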
Background: ELISA stands for enzyme-linked immunosorbent assay.

Sequence of LRRK2 (G2019S) (Q5S007 970-2527 G2019S limits assumed): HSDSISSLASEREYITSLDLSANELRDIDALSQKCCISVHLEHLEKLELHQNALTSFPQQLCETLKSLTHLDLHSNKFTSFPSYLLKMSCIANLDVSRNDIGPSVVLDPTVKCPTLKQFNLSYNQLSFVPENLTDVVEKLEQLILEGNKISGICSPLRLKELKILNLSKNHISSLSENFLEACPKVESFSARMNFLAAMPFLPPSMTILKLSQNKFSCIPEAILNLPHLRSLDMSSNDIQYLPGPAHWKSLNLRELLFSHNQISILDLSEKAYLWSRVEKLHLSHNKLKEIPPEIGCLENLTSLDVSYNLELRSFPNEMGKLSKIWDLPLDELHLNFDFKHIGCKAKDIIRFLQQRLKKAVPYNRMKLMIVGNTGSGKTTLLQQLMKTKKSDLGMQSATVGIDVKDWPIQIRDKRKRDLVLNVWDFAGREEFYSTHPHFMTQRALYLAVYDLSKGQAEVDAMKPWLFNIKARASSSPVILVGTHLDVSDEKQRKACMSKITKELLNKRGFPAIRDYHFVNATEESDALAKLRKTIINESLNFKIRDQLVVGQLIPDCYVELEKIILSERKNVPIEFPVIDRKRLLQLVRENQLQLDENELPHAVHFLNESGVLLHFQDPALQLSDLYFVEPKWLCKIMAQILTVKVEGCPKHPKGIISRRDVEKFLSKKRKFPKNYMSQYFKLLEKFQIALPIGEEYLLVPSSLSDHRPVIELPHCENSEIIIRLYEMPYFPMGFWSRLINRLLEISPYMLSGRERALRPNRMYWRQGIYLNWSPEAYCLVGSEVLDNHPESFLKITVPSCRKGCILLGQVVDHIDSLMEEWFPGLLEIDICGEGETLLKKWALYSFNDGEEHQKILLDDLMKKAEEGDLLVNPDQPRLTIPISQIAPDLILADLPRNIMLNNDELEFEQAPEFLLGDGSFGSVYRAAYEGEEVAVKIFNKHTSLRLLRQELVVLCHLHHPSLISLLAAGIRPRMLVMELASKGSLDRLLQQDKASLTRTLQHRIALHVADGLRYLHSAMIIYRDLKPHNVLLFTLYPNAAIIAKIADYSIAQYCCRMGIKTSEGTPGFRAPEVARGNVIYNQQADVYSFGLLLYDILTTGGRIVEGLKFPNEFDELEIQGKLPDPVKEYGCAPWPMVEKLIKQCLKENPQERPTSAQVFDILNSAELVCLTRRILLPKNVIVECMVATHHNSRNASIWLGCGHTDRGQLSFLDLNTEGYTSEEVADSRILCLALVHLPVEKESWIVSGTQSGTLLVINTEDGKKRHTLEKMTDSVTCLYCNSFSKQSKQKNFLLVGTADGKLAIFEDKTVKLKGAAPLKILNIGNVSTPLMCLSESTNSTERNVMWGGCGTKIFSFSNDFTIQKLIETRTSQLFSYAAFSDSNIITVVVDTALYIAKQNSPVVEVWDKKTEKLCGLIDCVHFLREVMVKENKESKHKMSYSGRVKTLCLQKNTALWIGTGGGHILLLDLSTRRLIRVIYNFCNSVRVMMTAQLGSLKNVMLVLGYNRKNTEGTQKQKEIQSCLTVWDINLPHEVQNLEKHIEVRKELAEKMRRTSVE
T2 sequence (P49759 129-484 limits assumed): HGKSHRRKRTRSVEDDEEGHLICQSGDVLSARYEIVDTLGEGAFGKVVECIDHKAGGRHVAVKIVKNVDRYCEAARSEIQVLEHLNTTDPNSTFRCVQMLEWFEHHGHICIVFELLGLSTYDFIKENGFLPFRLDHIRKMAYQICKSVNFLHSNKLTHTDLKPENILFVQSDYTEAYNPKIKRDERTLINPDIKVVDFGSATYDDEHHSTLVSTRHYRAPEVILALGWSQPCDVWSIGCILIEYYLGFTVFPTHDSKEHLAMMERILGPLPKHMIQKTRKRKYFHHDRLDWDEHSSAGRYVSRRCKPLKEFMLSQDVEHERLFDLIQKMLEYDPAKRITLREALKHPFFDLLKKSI

As to `O=C(c1ccc(Nc2nc(NC3CC3)c3c(C(F)(F)F)c[nH]c3n2)c2c1CCO2)N1CCC(N2CCOCC2)CC1` [Example 434, (7-((4-(cyclopropyl-amino)5-(trifluoromethyl)-7H-pyrrolo[2,3-d]pyrimidin-2-yl)amino)-2,3-dihydrobenzo-furan-4-yl)(4-morpho-linopiperidin-1-yl)methanone], the IC50 in experiment [1], in experiment [2] and in experiment [3] was under 100 nM throughout. Moreover, the inhibition at 0.5 µM in experiment [4] amounted to 34.1%.

Consider `CCCNc1nc(Nc2ccc(C(=O)N3CCC(N4CCOCC4)CC3)c3c2OCC3)nc2[nH]cc(C(F)(F)F)c12` [Example 446, (4-morpholino-piperidin-1-yl)(7-((4-(propylamino)-5-(trifluoromethyl)-7H-pyrrolo[2,3-d]pyrimidin-2-yl)amino)-2,3-dihydrobenzo-furan-4-yl)methanone], for which the 50% inhibitory concentration (IC50) in experiment [1], in experiment [2] and in experiment [3] was under 100 nM throughout. In addition, the inhibition at 0.5 µM in experiment [4] came out at 17.3%.

On to `CCNc1nc(Nc2ccc(C(=O)N3CCC(N4CCOCC4)CC3)c3c2OCC3)nc2[nH]cc(C(F)(F)F)c12` [Example 438, (7-((4-(ethylamino)-5-(trifluoromethyl)-7H-pyrrolo[2,3-d]pyrimidin-2-yl)amino)-2,3-dihydrobenzo-furan-4-yl)(4-morpho-linopiperidin-1-yl)methanone], for which the IC50 in experiment [1], in experiment [2] and in experiment [3] was under 100 nM each time. Also, the inhibition at 0.5 µM in experiment [4] is 25.8%.

Take `CCNc1nc(Nc2ccc(C(=O)N3CCN(C4COC4)CC3)c3c2OCCO3)nc2[nH]cc(C(F)(F)F)c12` [Example 400, (8-((4-(ethylamino)-5-(trifluoromethyl)-7H-pyrrolo[2,3-d]pyrimidin-2-yl)amino)-2,3-dihydrobenzo[b] [1,4]dioxin-5-yl) (4-(oxetan-3-yl)piperazin-1-yl)methanone]: the IC50 in experiment [1], in experiment [2] and in experiment [3] was under 100 nM in each case. Besides, the inhibition at 0.5 µM in experiment [4] is 24.7%.

Take `CNc1nc(Nc2ccc(C(=O)N3CCC(N4CCOCC4)CC3)c3c2OCC3)nc2[nH]cc(C(F)(F)F)c12` [Example 217, (7-((4-(methylamino)-5-(trifluoromethyl)-7H-pyrrolo[2,3-d]pyrimidin-2-yl)amino)-2,3-dihydrobenzofuran-4-yl)(4-morpholinopiperidin-1-yl)methanone]: the concentration for half-maximal inhibition (IC50) in experiment [1], in experiment [2] and in experiment [3] was under 100 nM throughout. For the same compound, the inhibition at 0.5 µM in experiment [4] was 23.4%.

On to `CCNc1nc(Nc2ccc(C(=O)N3CC[C@H](N4CCOCC4)C3)c3c2OCC3)nc2[nH]cc(C(F)(F)F)c12` [Example 475, (S)-(7-((4-(ethylamino)-5-(trifluoromethyl)-7H-pyrrolo[2,3-d]pyrimidin-2-yl)amino)-2,3-dihydrobenzo-furan-4-yl)(3-morpholino-pyrrolidin-1-yl)methanone], for which the 50% inhibitory concentration (IC50) in experiment [1], in experiment [2] and in experiment [3] was under 100 nM in each case. In experiment [4], the inhibition at 0.5 µM worked out at 42.5%.

`COCCNc1nc(Nc2ccc(C(=O)N3CCC(N4CCOCC4)CC3)c3c2OCC3)nc2[nH]cc(C(F)(F)F)c12` [Example 443, (7-((4-((2-methoxyethyl)amino)-5-(trifluoromethyl)-7H-pyrrolo[2,3-d]pyrimidin-2-yl)amino)-2,3-dihydrobenzo-furan-4-yl)(4-morpho-linopiperidin-1-yl)methanone]: the 50% inhibitory concentration (IC50) in experiment [1], in experiment [2] and in experiment [3] was under 100 nM in each case. Also, the inhibition at 0.5 µM in experiment [4] stood at 4.6%.

Take `CNc1nc(Nc2ccc(C(=O)N3CCN(C4COC4)CC3)c3c2OCCO3)nc2[nH]cc(C(F)(F)F)c12` [Example 397, (8-((4-(methylamino)-5-(trifluoromethyl)-7H-pyrrolo[2,3-d]pyrimidin-2-yl)amino)-2,3-dihydrobenzo[b] [1,4]dioxin-5-yl) (4-(oxetan-3-yl)piperazin-1-yl)methanone]: the IC50 in experiment [1] is 101 to 300 nM; in experiment [2] it was under 100 nM; in experiment [3] it was under 100 nM. In addition, in experiment [4], the inhibition at 0.5 µM stood at 32%.

As to `CCNc1nc(Nc2ccc(C(=O)N3CCC(N4CCOCC4)CC3)c3c2OCC3)nc2[nH]cc(C#N)c12` [Example 347, 4-(ethylamino)-2-((4-(4-morpholino-piperidine-1-carbonyl)-2,3-dihydro-benzofuran-7-yl)amino)-7H-pyrrolo[2,3-d]pyrimidine-5-carbonitrile], the IC50 in experiment [1], in experiment [2] and in experiment [3] was under 100 nM in each case. In experiment [4], the inhibition at 0.5 µM was determined as 14.1%.

As to `C=CCNc1nc(Nc2ccc(S(=O)(=O)N3CCC(N4CCOCC4)CC3)cc2OC)nc2[nH]cc(C#N)c12` [Example 361, 4-(allylamino)-2-((2-methoxy-4-((4-morpholino-piperidin-1-yl)sulfonyl)phenyl)amino)-7H-pyrrolo[2,3-d]pyrimidine-5-carbonitrile], the IC50 is 301 to 1000 nM in experiment [1], under 100 nM in experiment [2] and under 100 nM in experiment [3]. For the same compound, the inhibition at 0.5 µM in experiment [4] came to 21.7%.

Take `O=C(c1ccc(Nc2nc(NC3CCCC3)c3c(C(F)(F)F)c[nH]c3n2)c2c1OCCO2)N1CCN(C2COC2)CC1` [Example 414, (8-((4-(cyclopentyl-amino)-5-(trifluoromethyl)-7H-pyrrolo[2,3-d]pyrimidin-2-yl)amino)-2,3-dihydrobenzo[b] [1,4]dioxin-5-yl) (4-(oxetan-3-yl)piperazin-1-yl)methanone]: the half-inhibitory concentration (IC50) in experiment [1], in experiment [2] and in experiment [3] was under 100 nM each time. Besides, in experiment [4], the inhibition at 0.5 µM turned out to be 47.3%.

On to `CCNc1nc(Nc2ccc(C(=O)N3CCC(N4C[C@@H]5C[C@H]4CO5)CC3)c3c2OCC3)nc2[nH]cc(C(F)(F)F)c12` [Example 468], for which the IC50 in experiment [1], in experiment [2] and in experiment [3] was under 100 nM each time. Further, the inhibition at 0.5 µM in experiment [4] is 22.4%.

In the case of `CNc1nc(Nc2ccc(C(=O)N3CC[C@H](N4CCOCC4)C3)c3c2OCC3)nc2[nH]cc(C(F)(F)F)c12` [Example 236, (S)-(7-((4-(methylamino)-5-(trifluoromethyl)-7H-pyrrolo[2,3-d]pyrimidin-2-yl)amino)-2,3-dihydrobenzofuran-4-yl)(3-morpholinopyrrolidin-1-yl)methanone], the IC50 in experiment [1], in experiment [2] and in experiment [3] was under 100 nM each time. The inhibition at 0.5 µM in experiment [4] is 22.9%.

With `CCNc1nc(Nc2ccc(S(=O)(=O)N3CCC(N4CCOCC4)CC3)c3c2OCCO3)nc2[nH]cc(C(F)(F)F)c12` [Example 430, N^4-ethyl-N^2-(8-((4-morpholino-piperidin-1-yl)sulfonyl)-2,3-dihydro-benzo[b][1,4]dioxin-5-yl)-5-(trifluoromethyl)-7H-pyrrolo[2,3-d]pyrimidine-2,4-diamine], the values for the IC50 in experiment [1], in experiment [2] and in experiment [3] were 301 to 1000 nM, 101 to 300 nM and under 100 nM, respectively. Besides, the inhibition at 0.5 µM in experiment [4] worked out at 21%.

`O=C(c1ccc(Nc2nc(NC3CCC3)c3c(C(F)(F)F)c[nH]c3n2)c2c1OCCO2)N1CCN(C2COC2)CC1` [Example 407, (8-((4-(cyclo-butylamino)-5-(trifluoromethyl)-7H-pyrrolo[2,3-d]pyrimidin-2-yl)amino)-2,3-dihydrobenzo[b] [1,4]dioxin-5-yl) (4-(oxetan-3-yl)piperazin-1-yl)methanone]: the IC50 in experiment [1] and in experiment [2] was under 100 nM in each case. Besides, the inhibition at 0.5 µM in experiment [4] was 20.2%.

Take `CNc1nc(Nc2ccc(S(=O)(=O)N3CCC(N4CCOCC4)CC3)cc2OC)nc2[nH]cc(C(F)(F)F)c12` [Example 157, N^2-(2-methoxy-4-((4-morpholinopiperidin-1-yl)sulfonyl)phenyl)-N^4-methyl-5-(trifluoromethyl)-7H-pyrrolo[2,3-d]pyrimidine-2,4-diamine 2,2,2-trifluoroacetate]: the IC50 in experiment [1], in experiment [2] and in experiment [3] was under 100 nM each time. Also, in experiment [4], the inhibition at 0.5 µM turned out to be 1.6%.

For `COc1cc(P2(=O)CCN(C3CCOCC3)CC2)ccc1Nc1nc(NC2CC2)c2c(C(F)(F)F)c[nH]c2n1` [Example 435, 4-(4-((4-(cyclo-propylamino)-5-(trifluoromethyl)-7H-pyrrolo[2,3-d]pyrimidin-2-yl)amino)-3-methoxyphenyl)-1-(tetrahydro-2H-pyran-4-yl)-1,4-azaphosphinane 4-oxide], the concentration for half-maximal inhibition (IC50) in experiment [1] and in experiment [2] was under 100 nM throughout. Besides, the inhibition at 0.5 µM in experiment [4] is 22.2%.
